Experimental data published in patent US20150165097A1, “HARDENABLE ANTIMICROBIAL COMPOSITION” (priority 2012, published 2015).
Where a name gives a salt, the structure may show the parent alone. Read-outs that look alike come from different tables or passages of the source.

Tests used:
[1] = Solubility of antimicrobial agent in plasticizer alone (Example 1); assay type: physicochemical
Method: The solubility of three different antimicrobial agents: benzalkonium chloride (BKC), octenidine dihydrochloride (OCT), and polyhexamethylene biguanide (PHMB); in various plasticizers was evaluated by the following procedure. The antimicrobial agent was added to a small vial; to this, the plasticizer of interest was added. […] In each solution, 1.5% wt/wt of one antimicrobial agent (BKC, OCT, or PHMB) was combined with 98.5% wt/wt of one of each of the following plasticizers: DINCH, acetyl tributyl citrate, trioctyl trimellitate, dioctyl adipate, or polyester adipate.

[2] = Solubility / solution appearance of antimicrobial agent in vehicle before addition of PVC
Method: The antimicrobial agent was added to a small vial. For samples containing CPC or OCT, benzyl alcohol (BzOH, available from Mallinkrodt Baker Inc. of Phillipsburg, N.J.), was also added and the mixture was vortexed. Zinc octoate (ZnOct) was then added to the mixture. In a separate jar, a batch mixture containing DINCH, ESO and di-IDPP was prepared; the solution was allowed to roll until a clear/colorless mixture was obtained with no mixing lines. In a separate jar, the appropriate amount of batch mixture was added into the vial containing the antimicrobial agent, solvent, and zinc octoate (ZnOct). The mixture was vortexed and the solution was allowed to roll at a setting of 60 rpm until a determination was made as to whether or not the antimicrobial was dissolving in the solution.
The BKC was dispensed into a 25 mL vial. To this was added the DINCH, TIDP, and ZnOct in that order. The vial was then capped and vortexed for several seconds, and then placed on rollers set at 65 rpm in order to promote the dissolution (if possible) of the BKC. […]
The antimicrobial agents assessed were BKC, BZT, OCT, PCMX, POEtOH, and PHMB. The amount of each antimicrobial agent added was calculated to be equal to the same number of moles of BKC at 1.5 wt % in the plastisol formulation. […]

[3] = Solubility of antimicrobial agent in plasticizer with heat stabilizer package (Example 2), judged visually; conditions: 1.1 wt %; ESO, DDPP and ZnOct present
Method: To the vial containing the plasticizer and antimicrobial, the appropriate amount (see below) of a master batch solution of PVC heat stabilizer was added. The master batch solution of PVC heat stabilizer included: epoxidized soybean oil (ESO), decyl diphenyl Phosphite (DDPP), and zinc octoate (ZnOct). The solution was allowed to roll overnight at ambient temperature at 60 rpm to determine if the antimicrobial was soluble in that system. Samples were evaluated visually for solubility. […] Samples that were clear were judged to have the cationic antimicrobial completely soluble. Those that were hazy were judged to have the antimicrobial partially soluble. Those that were opaque white were substantially insoluble.

Molecule | Solubility in plasticizer [1] | Solubility of BKC in DINCH, TIDP vehicle ([2]; Example 4, in the absence of ZnOct) | Solubility in DINCH, ATC, TOTM, DOA and PEA with heat stabilizing package [3] | Solubility in MESAMOLL ([2]; Example 8, BZT: at low concentrations of ZnOct, OCT: even with increasing amounts of ZnOct) | Solubility in plasticizer ([1]; 1.5% wt/wt antimicrobial agent in 98.5% wt/wt DINCH, acetyl tributyl citrate, trioctyl trimellitate, dioctyl adipate or polyester adipate, rolled 16 hours at 60 rpm)
CCCCCCCCCCCCCC[N+](C)(C)Cc1ccccc1.[Cl-] [BKC, Benzyl dimethyl tetradecyl ammonium chloride] | none of these antimicrobial agents were soluble | much less solubility | soluble | – | –
CCCCCCCCN=c1ccn(CCCCCCCCCCn2ccc(=NCCCCCCCC)cc2)cc1 [OCT, Octenidine dihydrochloride] | none of these antimicrobial agents were soluble | – | not soluble | – | –
OCCOc1ccccc1 [POEtOH, 2-phenoxyethanol] | – | – | – | well below their solubility limits | –
Polyhexamethylene biguanide [PHMB] | – | – | not soluble | – | none of these antimicrobial agents were soluble
